Measurements: PubChem BioAssay (NCI)
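Each compound was tested at five concentrations against cells in 96-well plates for 48 hours. TGI marks complete inhibition of growth.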

Columns and labels:
Assay in all cases: NCI-60 cell line screen, 48 h
[1] = tested on: OVCAR-8 ovarian
[2] = tested on: T-47D breast
[3] = tested on: HOP-92 NSCLC
[4] = tested on: MDA-MB-231 breast
[5] = tested on: SF-295 CNS
[6] = tested on: M14 melanoma
[7] = tested on: HT29 colon
[8] = tested on: SF-268 CNS
[9] = tested on: HCT-116 colon
[10] = tested on: KM12 colon
[11] = tested on: SNB-75 CNS
[12] = tested on: NCI/ADR-RES ovarian
[13] = tested on: SN12C renal
[14] = tested on: SW-620 colon
[15] = tested on: CAKI-1 renal
[16] = tested on: SK-MEL-2 melanoma
[17] = tested on: HCT-15 colon
[18] = tested on: DU-145 prostate
[19] = tested on: UO-31 renal
[20] = tested on: OVCAR-5 ovarian
[21] = tested on: K-562 leukemia
[22] = tested on: UACC-62 melanoma
[23] = tested on: RXF 393 renal
[24] = tested on: SNB-19 CNS
[25] = tested on: BT-549 breast
[26] = tested on: SK-MEL-5 melanoma
[27] = tested on: OVCAR-3 ovarian
[28] = tested on: MCF7 breast
[29] = tested on: IGROV1 ovarian
[30] = tested on: SF-539 CNS
[31] = tested on: OVCAR-4 ovarian
[32] = tested on: MOLT-4 leukemia
[33] = tested on: NCI-H460 lung
[34] = tested on: SR leukemia
[35] = tested on: U251 CNS
[36] = tested on: A498 renal
[37] = tested on: NCI-H522 lung
[38] = tested on: SK-MEL-28 melanoma
[39] = tested on: ACHN renal
[40] = tested on: MDA-N
[41] = tested on: TK-10 renal
[42] = tested on: NCI-H23 lung
[43] = tested on: HL-60(TB) leukemia
[44] = tested on: PC-3 prostate
[45] = tested on: UACC-257 melanoma
[46] = tested on: MDA-MB-435
[47] = tested on: HCC-2998 colon
[48] = tested on: COLO 205 colon
[49] = tested on: MALME-3M melanoma
[50] = tested on: CCRF-CEM leukemia
[51] = tested on: RPMI-8226 leukemia
[52] = tested on: A549 NSCLC
[53] = tested on: 786-0 renal
[54] = tested on: NCI-H226 lung
[55] = tested on: HOP-62 NSCLC
[56] = tested on: LOX IMVI melanoma
[57] = tested on: SK-OV-3 ovarian
[58] = tested on: EKVX NSCLC

Q: For `OCC1NC(COC2OC(CO)C(O)C(O)C2O)C(O)C(O)C1O` (centres undefined), which TGI [1] is on record?
A: The TGI was over 100 µM.

Q: And the TGI [2]?
A: Its TGI is over 100 µM.

Q: And the TGI [3]?
A: The TGI was over 100 µM.

Q: And the TGI [4]?
A: Its TGI is over 100 µM.

Q: And the TGI [5]?
A: The TGI was over 100 µM.

Q: And the TGI [6]?
A: Its TGI is over 100 µM.

Q: And the TGI [7]?
A: The TGI was over 100 µM.

Q: What about the TGI [8] of the same compound?
A: The TGI was over 100 µM.

Q: What about the TGI [9] of the same compound?
A: The TGI was over 100 µM.

Q: What about the TGI [10] of the same compound?
A: The TGI was over 100 µM.

Q: What about the TGI [11] of the same compound?
A: Its TGI is over 100 µM.

Q: And the TGI [12]?
A: Its TGI is over 100 µM.

Q: What about the TGI [13] of the same compound?
A: Its TGI is over 100 µM.

Q: And the TGI [14]?
A: The TGI was over 100 µM.

Q: And the TGI [15]?
A: Its TGI is over 100 µM.

Q: What about the TGI [16] of the same compound?
A: Its TGI is over 100 µM.

Q: What about the TGI [17] of the same compound?
A: The TGI was over 100 µM.

Q: And the TGI [18]?
A: Its TGI is over 100 µM.

Q: What about the TGI [19] of the same compound?
A: Its TGI is over 100 µM.

Q: And the TGI [20]?
A: The TGI was over 100 µM.

Q: And the TGI [21]?
A: Its TGI is over 100 µM.

Q: And the TGI [22]?
A: Its TGI is over 100 µM.

Q: What about the TGI [23] of the same compound?
A: Its TGI is over 100 µM.

Q: What about the TGI [24] of the same compound?
A: The TGI was over 100 µM.

Q: What about the TGI [25] of the same compound?
A: The TGI was over 100 µM.

Q: What about the TGI [26] of the same compound?
A: The TGI was over 100 µM.

Q: What about the TGI [27] of the same compound?
A: Its TGI is over 100 µM.

Q: And the TGI [28]?
A: The TGI was over 100 µM.

Q: What about the TGI [29] of the same compound?
A: The TGI was over 100 µM.

Q: What about the TGI [30] of the same compound?
A: The TGI was over 100 µM.

Q: What about the TGI [31] of the same compound?
A: The TGI was over 100 µM.

Q: And the TGI [32]?
A: The TGI was over 100 µM.

Q: And the TGI [33]?
A: The TGI was over 100 µM.

Q: What about the TGI [34] of the same compound?
A: The TGI was over 100 µM.

Q: And the TGI [35]?
A: The TGI was over 100 µM.

Q: And the TGI [36]?
A: The TGI was over 100 µM.

Q: And the TGI [37]?
A: The TGI was over 100 µM.

Q: And the TGI [38]?
A: The TGI was over 100 µM.

Q: What about the TGI [39] of the same compound?
A: The TGI was over 100 µM.

Q: And the TGI [40]?
A: Its TGI is over 100 µM.

Q: What about the TGI [41] of the same compound?
A: Its TGI is over 100 µM.

Q: What about the TGI [42] of the same compound?
A: Its TGI is over 100 µM.

Q: What about the TGI [43] of the same compound?
A: The TGI was over 100 µM.

Q: What about the TGI [44] of the same compound?
A: Its TGI is over 100 µM.

Q: And the TGI [45]?
A: Its TGI is over 100 µM.

Q: And the TGI [46]?
A: Its TGI is over 100 µM.

Q: What about the TGI [47] of the same compound?
A: The TGI was over 100 µM.

Q: What about the TGI [48] of the same compound?
A: Its TGI is over 100 µM.

Q: What about the TGI [49] of the same compound?
A: Its TGI is over 100 µM.

Q: What about the TGI [50] of the same compound?
A: The TGI was over 100 µM.

Q: What about the TGI [51] of the same compound?
A: Its TGI is over 100 µM.

Q: And the TGI [52]?
A: The TGI was over 100 µM.

Q: What about the TGI [53] of the same compound?
A: Its TGI is over 100 µM.

Q: And the TGI [54]?
A: The TGI was over 100 µM.

Q: How did the TGI [1] turn out when `O=[N+]([O-])c1ccc(CSc2nn(Cc3ccc([N+](=O)[O-])cc3)cc3ncnc2-3)cc1` was run?
A: The TGI was over 100 µM.

Q: And the TGI [2]?
A: The TGI was over 100 µM.

Q: What about the TGI [3] of the same compound?
A: The TGI was 30.4 µM.

Q: What about the TGI [55] of the same compound?
A: The TGI was over 100 µM.

Q: What about the TGI [4] of the same compound?
A: Its TGI is over 100 µM.

Q: And the TGI [5]?
A: Its TGI is over 100 µM.

Q: What about the TGI [56] of the same compound?
A: The TGI was over 100 µM.

Q: What about the TGI [6] of the same compound?
A: Its TGI is over 100 µM.

Q: What about the TGI [7] of the same compound?
A: Its TGI is over 100 µM.

Q: What about the TGI [9] of the same compound?
A: Its TGI is over 100 µM.

Q: What about the TGI [10] of the same compound?
A: Its TGI is over 100 µM.

Q: What about the TGI [11] of the same compound?
A: The TGI was over 100 µM.

Q: What about the TGI [12] of the same compound?
A: The TGI was over 100 µM.

Q: What about the TGI [13] of the same compound?
A: Its TGI is over 100 µM.

Q: And the TGI [14]?
A: The TGI was over 100 µM.

Q: What about the TGI [15] of the same compound?
A: Its TGI is over 100 µM.

Q: What about the TGI [16] of the same compound?
A: Its TGI is 49.1 µM.

Q: What about the TGI [17] of the same compound?
A: The TGI was over 100 µM.

Q: And the TGI [19]?
A: The TGI was 61.2 µM.

Q: And the TGI [20]?
A: Its TGI is over 100 µM.

Q: What about the TGI [21] of the same compound?
A: Its TGI is over 100 µM.

Q: And the TGI [22]?
A: The TGI was 40.7 µM.

Q: And the TGI [25]?
A: Its TGI is 84.8 µM.

Q: And the TGI [26]?
A: The TGI was over 100 µM.

Q: And the TGI [27]?
A: The TGI was over 100 µM.

Q: And the TGI [28]?
A: Its TGI is over 100 µM.

Q: And the TGI [29]?
A: The TGI was 52.1 µM.

Q: What about the TGI [30] of the same compound?
A: Its TGI is 95.5 µM.

Q: And the TGI [31]?
A: The TGI was over 100 µM.

Q: What about the TGI [32] of the same compound?
A: Its TGI is over 100 µM.

Q: What about the TGI [57] of the same compound?
A: The TGI was over 100 µM.

Q: And the TGI [36]?
A: Its TGI is 58.8 µM.

Q: What about the TGI [37] of the same compound?
A: Its TGI is 67.8 µM.

Q: What about the TGI [38] of the same compound?
A: The TGI was 84.5 µM.

Q: And the TGI [39]?
A: The TGI was over 100 µM.

Q: What about the TGI [40] of the same compound?
A: The TGI was over 100 µM.

Q: What about the TGI [41] of the same compound?
A: Its TGI is over 100 µM.

Q: And the TGI [42]?
A: Its TGI is over 100 µM.

Q: What about the TGI [43] of the same compound?
A: The TGI was 46.4 µM.

Q: And the TGI [44]?
A: Its TGI is over 100 µM.

Q: And the TGI [45]?
A: The TGI was over 100 µM.

Q: What about the TGI [46] of the same compound?
A: The TGI was 74.7 µM.

Q: What about the TGI [47] of the same compound?
A: The TGI was over 100 µM.

Q: What about the TGI [48] of the same compound?
A: Its TGI is over 100 µM.

Q: And the TGI [49]?
A: Its TGI is 65.2 µM.

Q: And the TGI [51]?
A: Its TGI is 75 µM.

Q: And the TGI [52]?
A: The TGI was over 100 µM.

Q: What about the TGI [58] of the same compound?
A: Its TGI is over 100 µM.

Q: What about the TGI [53] of the same compound?
A: Its TGI is over 100 µM.

Q: What about the TGI [54] of the same compound?
A: The TGI was over 100 µM.
